# Experiments:
# labia and clitoris = assay: Infrared thermographic measurement of labial/clitoral temperature after topical administration; assay type: in vivo, Female white New Zealand rabbits; conditions: for temperature of the labia and clitoris following the application: 50 μL
# Experimental: Female white New Zealand rabbits were anaesthetized with pentobarbitol sodium and placed in a supine position on a warming pad. The warming pad was connected to a temperature control unit to maintain the core (rectal) temperature to 38° C. The labia and clitoris were exposed and kept in position by taping the surrounding skin to the nearby abdominal area. The infrared camera (THERMACAM® SC 1000, Inframetrics Inc., North Billerica, Mass.) was focused on the labia and clitoris and the animal was covered with a chamber to maintain the heat loss due to air movement.
# After a steady baseline temperature was maintained and recorded for at least 10 minutes the compound (50 μL) was applied to the surface of the labia and clitoris using a syringe and 27 G needle. The compound was formulated in a mixture of dimethyl sulfoxide (25%) and poly(ethylene glycols) (75%). The poly(ethylene glycols) was a mixture of poly(ethylene glycol) 1450 and poly(ethylene glycol) 400 in a ratio of 1:9 respectively.
# The images from the infrared camera were electronically transferred to a PC computer and analyzed using TherMonitor 95, version 1.61 (Thermoteknix System Ltd., Mount pleasant,Cambridge, U. K.). Various color scales in the visible wave length are used to depict the temperature change of the recorded images.
# labial blood flow = assay: Laser doppler measurement of labial/clitoral blood flow after topical administration; assay type: in vivo, Female white New Zealand rabbits; conditions: 5% or 10%, 50 μL topical in MIGLYOL; laser doppler probe; FIG. 6
# Experimental: Female white New Zealand rabbits were anaesthetized with Ketamine/Xylazine mixture and placed in supine position. A laser doppler probe (LASERFLO, BPM 403, Vasamedics, Inc., Minn.) was placed at the labium surface, and after steady baseline blood flow was maintained and recorded for at least 10 minutes, Example 5 (5%, 50 μL), 10% of Example 7 (10%, 50 μL), or vehicle alone (50 μL, MIGLYOL®) was applied to the surface of the labia and clitoris. […] The time course for the increase in blood flow (FIG. 6) was very similar to the time course for the increase in labial clitoral temperature (FIG. 5).
smiles,measurement,setting,value
"CC(C)(CN1C(=O)C2C3C=CC(C3)C2C1=O)SN=O (centres unmarked) [Example 1, 4-Aza-4-(2-methyl-2-(nitrosothio)propyl)tricyclo(5.2.1.0<2,6>)dec-8-ene-3,5-dione]",temperature of the labia and clitoris following the application,"labia and clitoris; 5% topical, ~32° C. prior to application, FIG. 3, vehicle gave no increase",35 °C
"CC(C)(SN=O)C1COC(=O)N1 (centres unmarked) [Example 2, 4-(1-Methyl-1-(nitrosothio)ethyl)-1,3-oxazolidin-2-one]",temperature of the labia and clitoris following the application,"labia and clitoris; 10% topical, ~32° C. prior to application, FIG. 4",36 °C
same,melting point,,65 °C
"N[C@@H](CCC(=O)N[C@@H](CSN=O)C(=O)NCC(=O)O)C(=O)O [Example 7, N-(N-L-y-glutamyl-S-Nitroso-L-cysteinyl)glycine]",change of labial clitoral temperature,"labia and clitoris; 2.5%, 50 μL topical in MIGLYOL, FIG. 5",slight and transient increase
same,increase of temperature of the labia and clitoris,"labia and clitoris; 5%, 50 μL topical in MIGLYOL, FIG. 5",3.5 °C
same,increase of temperature of the labia and clitoris,"labia and clitoris; 10%, 50 μL topical in MIGLYOL, FIG. 5",5.5 °C
same,duration of sustained increase in labial blood flow,labial blood flow,> 60 min
same,increase in labial blood flow as compared to the baseline,labial blood flow,4 fold
"CC(C)CON=O [isobutyl nitrite, reference compound]",temperature of the labia and clitoris following the application,"labia and clitoris; 10% topical, ~30° C. prior to application, FIG. 1, vehicle gave no increase",32 °C
same,temperature of the labia and clitoris following the application,"labia and clitoris; 20% topical, ~31° C. prior to application, FIG. 2, vehicle gave no increase",34 °C
"CNC[C@H](O)c1cccc(O)c1 [phenylephrine, reference compound]",temperature after addition of the vasoconstrictor (decrease),"labia and clitoris; 10% applied 60 minutes after Example 2 (10%), monitored for 5 minutes, decrease from 36° C., FIG. 4",32 °C

# From patent US6762202B2, “Infrared thermography and methods of use” (NitroMed, Inc., priority 2000, dated 2004)
